In paper PMC6875038, “Comparative Pharmacokinetic Studies of Four Ginsenosides in Rat Plasma by UPLC-MS/MS after Oral Administration of Panax quinquefolius-Acorus gramineus and Panax quinquefolius Extracts” (Journal of Analytical Methods in Chemistry, 2019):
Like-named read-outs stand apart in the source and are kept apart here.

Tests used:
[1] = Stability of the ginsenosides in rat plasma (QC samples); type: in vitro ADME; conditions: for Re (%) Postpreparation / Recovery (%) Postpreparation: autosampler 4°C for 12 h; for Re (%) Short term / Recovery (%) Short term / Re (%) Freeze-thaw cycles / Recovery (%) Freeze-thaw cycles: rat plasma; for Re (%) Short term / Recovery (%) Short term: 1 month at −80°C; for Re (%) Freeze-thaw cycles / Recovery (%) Freeze-thaw cycles: three freeze-thaw cycles at −80°C
Description: The standard stock solution was prepared in methanol with four ginsenosides at the final concentration of 1.14 mg/mL for Rb1, 0.10 mg/mL for Rb2, 0.78 mg/mL for Rd, and 1.58 mg/mL for Re. The working standard solution at required concentration was obtained by continuously diluting the stock solution. The IS stock solution was also prepared with methanol at a final concentration of 720 ng/mL. Calibration samples were prepared by mixing solutions of standard mixture, internal standard, and methanol with rat blank plasma at the final concentrations of 3.6, 7.2, 35.6, 71.2, 142.4, 284.8, 569.5, and 1, 139.0 ng/mL for Rb1, 1.6, 3.2, 6.3, 31.3, 62.5, 125.0, 250.0, and 500.0 ng/mL for Rb2, 1.2, 2.4, 4.9, 24.4, 48.8, 97.6, 195.1, and 390.2 ng/mL for Rd, and 2.5, 4.9, 9.9, 49.3, 98.6, 197.1, 394.3, and 788.5 ng/mL for Re. QC samples were also prepared with the same method at low, middle, and high concentrations (7.2, 142.4, and 911.4 ng/mL for Rb1, 3.2, 62.5, and 400.0 ng/mL for Rb2, 2.4, 48.8, and 312.2 ng/mL for Rd, 5.0, 98.6, and 630.8 ng/mL for Re). All solutions were stored at 4°C. The stability of the four analytes was determined by exposing plasma samples to QC at three concentration levels in six replicates. Samples were stored at −80°C for 1 month to assess the short-term storage stability. Freeze-thaw stability was performed after three freeze-thaw cycles at −80°C during three consecutive days. To evaluate the postpreparative stability, extracted QC samples were kept in the autosampler (4°C) for 12 h before analysis. The stability assessment of these samples was calibrated with freshly prepared standard as previously described.

[2] = Pharmacokinetics of four ginsenosides in rat plasma after oral administration of PQ-AG and PQ extracts (UPLC-MS/MS); type: in vivo; conditions: male SD rats, n = 6, mean ± SD; for AUC: male, SD, po
Description: Chromatographic analysis was performed on a Waters Acquity UPLC system (Waters Corp., Milford, MA, USA). An ACQUITY UPLC BEH C18 (100 × 2.1 mm, 1.7 μm) column was used for all analytes. The column temperature was at 35°C. The mobile phase was composed of formic acid aqueous solution (A, 0.1%) and acetonitrile (B) at a gradient elution of 25% B at 0–0.5 min, 25%–50% B at 0.5–2.0 min, 50–60% B at 2.0–5.0 min, 60–25% B at 5.0–5.5 min, and 25% B at 5.5–7.0 min, with a flow rate of 0.2 mL/min.
MS detection was performed using the Xevo Triple Quadruple MS (Waters Corp.) equipped with an ESI source in both positive and negative ionization modes. The experimental parameters were set as follows: CV 2.80 kV; desolvation temperature 350°C; source temperature […]; cone gas flow 50 L/h; and desolvation gas flow 650 L/h. The detection was carried out using the MRM scan mode. All experimental data were collected in centroid mode using Masslynx 4.1 software (Waters Corp., Milford, USA), and postacquisition quantitative analysis was conducted using Target Lynx program (Waters Corp., Milford, USA).
Plasma specimens (200 μL) were mixed with IS solution (20 μL, 720 ng/mL) in an Eppendorf tube and centrifuged at 4, 000 rpm for 15 min at 4°C. Then, the supernatant was removed from plasma sample. Hydrochloric acid (4 μL) was added into 200 μL plasma sample, and then, the mixture was vortexed for 1 min. Waters OASIS HLB SPE C18 columns (Waters, USA) were used to remove the proteins in plasma samples, and it was preactivated by 3 mL methanol and 3 mL water. Then, 2 mL of 100% methanol was used to wash the column, and the eluate was collected and dried under nitrogen gas (45°C). Subsequently, 100 μL of 100% methanol was used to redissolve the residues, followed by centrifugation at 13, 000 rpm for 15 min at 4°C. Before UPLC-MS/MS analysis, the sample was finally filtered through a 0.22 μm membrane filter.
DAS 3.2 software (Mathematical Pharmacology Professional Committee of China, Shanghai, China, 2011) was applied for the analysis of concentration-time data to investigate the pharmacokinetic parameters of four ginsenosides in various groups. Data were presented as the mean ± SD (standard deviation) with triplicate measurements. A significance level was set at P < 0.05.
Male SD rats were randomly and evenly divided into two groups (n = 6 per group) in pharmacokinetic studies. To evaluate the compatible effect of AG upon PQ treatment, rats were given PQ at a dosage of 0.54 g/kg (equivalent to the amount of raw drug 0.54 g) in the PQ group. PQ-AG was combined with an equal proportion to prepare the mixed extract. The oral dosage in rats was 1.08 g/kg (equivalent to the amount of the raw drug including 0.54 g AG and 0.54 g PQ) in the PQ-AG group. Blood samples were collected at specific time points of 0, 0.25, 0.5, 1.0, 1.5, 2.0, 4.0, 6.0, 8.0, 12.0, 16.0, 24.0, and 48.0 h. All the plasma samples were obtained by centrifuging the blood samples at 3, 500 rpm for 10 min, then labeled and frozen at −80°C prior to analysis.

[3] = extracted high QC (911.4 Rb1, 400.0 Rb2, 312.2 Rd, 630.8 Re ng/mL)
[4] = extracted low QC (7.2 Rb1, 3.2 Rb2, 2.4 Rd, 5.0 Re ng/mL)
[5] = extracted middle QC (142.4 Rb1, 62.5 Rb2, 48.8 Rd, 98.6 Re ng/mL)
[6] = high QC (911.4 Rb1, 400.0 Rb2, 312.2 Rd, 630.8 Re ng/mL)
[7] = low QC (7.2 Rb1, 3.2 Rb2, 2.4 Rd, 5.0 Re ng/mL)
[8] = middle QC (142.4 Rb1, 62.5 Rb2, 48.8 Rd, 98.6 Re ng/mL)
[9] = PQ group: oral PQ extract 0.54 g/kg
[10] = PQ-AG group: oral PQ-AG extract 1.08 g/kg
[11] = 0.54 g/kg, PQ group: oral PQ extract 0.54 g/kg, read-out: AUC0⟶t
[12] = 0.54 g/kg, PQ group: oral PQ extract 0.54 g/kg, read-out: AUC0⟶∞
[13] = 1.08 g/kg, PQ-AG group: oral PQ-AG extract 1.08 g/kg, read-out: AUC0⟶t
[14] = 1.08 g/kg, PQ-AG group: oral PQ-AG extract 1.08 g/kg, read-out: AUC0⟶∞

Structure (SMILES)	Re (%) Postpreparation [1, 3]	Recovery (%) Postpreparation [1, 3]	Re (%) Postpreparation [1, 4]	Recovery (%) Postpreparation [1, 4]	Re (%) Postpreparation [1, 5]	Recovery (%) Postpreparation [1, 5]	Re (%) Short term [1, 6]	Recovery (%) Short term [1, 6]	Re (%) Freeze-thaw cycles [1, 6]	Recovery (%) Freeze-thaw cycles [1, 6]	Re (%) Short term [1, 7]	Recovery (%) Short term [1, 7]	Re (%) Freeze-thaw cycles [1, 7]	Recovery (%) Freeze-thaw cycles [1, 7]	Re (%) Short term [1, 8]	Recovery (%) Short term [1, 8]	Re (%) Freeze-thaw cycles [1, 8]	Recovery (%) Freeze-thaw cycles [1, 8]	Cmax [2, 9]	Tmax [2, 9]	further results
CC(C)=CCC[C@](C)(O[C@@H]1O[C@H](CO[C@@H]2OC[C@H](O)[C@H](O)[C@H]2O)[C@@H](O)[C@H](O)[C@H]1O)[C@H]1CC[C@]2(C)[C@@H]1[C@H](O)C[C@@H]1[C@@]3(C)CC[C@H](O[C@@H]4O[C@H](CO)[C@@H](O)[C@H](O)[C@H]4O[C@@H]4O[C@H](CO)[C@@H](O)[C@H](O)[C@H]4O)C(C)(C)[C@@H]3CC[C@]12C [Rb2]	7.90%	99.63%	−9.72%	93.37%	2.39%	99.94%	7.11%	98.74%	9.36%	103.82%	−9.70%	93.67%	−9.69%	94.21%	−2.12%	95.33%	6.77%	100.41%	160 ± 18.8 ng/mL	7.67 ± 0.82 h	half-life [2, 9]: 13.3 ± 1.58 h; Cmax [2, 10]: 264 ± 24.5 ng/mL; Tmax [2, 10]: 7.67 ± 0.82 h; half-life [2, 10]: 15.6 ± 5.21 h; AUC [2, 11]: 1210 ± 99.2 ng·h/mL; AUC [2, 12]: 1230 ± 99.6 ng·h/mL; AUC [2, 13]: 2460 ± 243 ng·h/mL; AUC [2, 14]: 2520 ± 289 ng·h/mL
CC(C)=CCC[C@](C)(O[C@@H]1O[C@H](CO)[C@@H](O)[C@H](O)[C@H]1O)[C@H]1CC[C@]2(C)[C@@H]1[C@H](O)C[C@@H]1[C@@]3(C)CC[C@H](O)C(C)(C)[C@@H]3[C@@H](O[C@@H]3O[C@H](CO)[C@@H](O)[C@H](O)[C@H]3O[C@@H]3O[C@@H](C)[C@H](O)[C@@H](O)[C@H]3O)C[C@]12C [Re]	9.76%	102.50%	8.54%	104.63%	8.92%	97.21%	8.40%	101.73%	−9.85%	97.39%	−10.71%	97.30%	7.33%	104.07%	12.11%	99.25%	7.53%	94.12%	355 ± 26.6 ng/mL	1.08 ± 0.2 h	half-life [2, 9]: 8.14 ± 1.2 h; Cmax [2, 10]: 460 ± 30.2 ng/mL; Tmax [2, 10]: 0.58 ± 0.2 h; half-life [2, 10]: 9.81 ± 2.15 h; AUC [2, 11]: 2330 ± 214 ng·h/mL; AUC [2, 12]: 2380 ± 224 ng·h/mL; AUC [2, 13]: 3430 ± 294 ng·h/mL; AUC [2, 14]: 3580 ± 396 ng·h/mL
CC(C)=CCC[C@](C)(O[C@@H]1O[C@H](CO)[C@@H](O)[C@H](O)[C@H]1O)[C@H]1CC[C@]2(C)[C@@H]1[C@H](O)C[C@@H]1[C@@]3(C)CC[C@H](O[C@@H]4O[C@H](CO)[C@@H](O)[C@H](O)[C@H]4O[C@@H]4O[C@H](CO)[C@@H](O)[C@H](O)[C@H]4O)C(C)(C)[C@@H]3CC[C@]12C [Rd]	−7.02%	94.81%	4.43%	100.10%	9.98%	101.71%	7.35%	101.27%	8.12%	102.00%	8.64%	102.66%	−11.93%	97.24%	10.24%	103.61%	8.87%	100.20%	201 ± 7.3 ng/mL	7.67 ± 0.82 h	half-life [2, 9]: 13.1 ± 2.61 h; Cmax [2, 10]: 283 ± 11.1 ng/mL; Tmax [2, 10]: 6.33 ± 0.82 h; half-life [2, 10]: 14.2 ± 1.98 h; AUC [2, 11]: 3010 ± 230 ng·h/mL; AUC [2, 12]: 3320 ± 317 ng·h/mL; AUC [2, 13]: 3870 ± 356 ng·h/mL; AUC [2, 14]: 3960 ± 383 ng·h/mL
CC(C)=CCC[C@](C)(O[C@@H]1O[C@H](CO[C@@H]2O[C@H](CO)[C@@H](O)[C@H](O)[C@H]2O)[C@@H](O)[C@H](O)[C@H]1O)[C@H]1CC[C@]2(C)[C@@H]1[C@H](O)C[C@@H]1[C@@]3(C)CC[C@H](O[C@@H]4O[C@H](CO)[C@@H](O)[C@H](O)[C@H]4O[C@@H]4O[C@H](CO)[C@@H](O)[C@H](O)[C@H]4O)C(C)(C)[C@@H]3CC[C@]12C [Rb1]	−6.47%	96.10%	6.86%	101.85%	9.35%	101.65%	7.53%	101.65%	7.75%	101.95%	−7.55%	96.32%	−6.90%	97.66%	7.95%	100.48%	−4.48%	95.35%	461 ± 15.9 ng/mL	7 ± 1.1 h	half-life [2, 9]: 15.6 ± 1.52 h; Cmax [2, 10]: 600 ± 53.6 ng/mL; Tmax [2, 10]: 6.67 ± 1.03 h; half-life [2, 10]: 18.5 ± 2.61 h; AUC [2, 11]: 5980 ± 313 ng·h/mL; AUC [2, 12]: 6150 ± 328 ng·h/mL; AUC [2, 13]: 8130 ± 454 ng·h/mL; AUC [2, 14]: 8410 ± 488 ng·h/mL
